Data on one compound can be found in ChEMBL document CHEMBL6134892, “Discovery and Evaluation of DA-302168S as an Efficacious Oral Small-Molecule Glucagon-Like Peptide-1 Receptor Agonist” (J Med Chem, 2025).

Molecules are shown by their SMILES. Bounds are passed on as bounds.

Data set [1] has as its target T1, Glucagon-like peptide 1 receptor (Homo sapiens, UniProt P43220). Put plainly: Agonist activity at human GLP-1R expressed in HEK293 cells by cAMP accumulation assay. Format: functional, cell-based. (In general: cAMP levels reflect the balance of adenylyl cyclase and phosphodiesterase activity.)
For a further data set, the target named is 5-HT1B receptor (Homo sapiens, UniProt P28222). Put plainly: Inhibition of 5-HT1B (unknown origin) at 10 uM relative to control. Format: toxicity.
5-HT1B receptor, sequence (P28222 whole entry): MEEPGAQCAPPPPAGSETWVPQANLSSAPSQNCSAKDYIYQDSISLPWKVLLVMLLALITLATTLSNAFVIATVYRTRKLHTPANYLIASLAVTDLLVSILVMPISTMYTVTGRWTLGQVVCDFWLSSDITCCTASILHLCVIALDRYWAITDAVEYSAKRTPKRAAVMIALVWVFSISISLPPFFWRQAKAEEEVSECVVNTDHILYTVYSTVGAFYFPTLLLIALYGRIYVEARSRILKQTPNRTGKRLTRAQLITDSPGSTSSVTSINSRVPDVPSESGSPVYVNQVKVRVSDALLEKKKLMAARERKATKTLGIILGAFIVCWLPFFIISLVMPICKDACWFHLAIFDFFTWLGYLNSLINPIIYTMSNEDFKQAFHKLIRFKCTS
Data set [2] can be described thus: Half life in Cynomolgus monkey at 5 mg/kg, po measured up to 48 hrs by LC-MS/MS analysis. The class given is ADME, organism-based, Macaca fascicularis. The note with it: in vivo.
The target in data set [3] is T1, Glucagon-like peptide 1 receptor. In words: Agonist activity at human GLP-1R expressed in HEK293 cells assessed as beta-arrestin recruitment. Format: functional, cell-based. On the technique in general: Arrestin recruitment assays detect the binding of arrestin to an activated receptor.
A short description of data set [4]: Agonist activity at cynomolgus monkey GLP-1R expressed in HEK293 cells by cAMP accumulation assay. To be noted: Macaca fascicularis.
The nature of data set [5]: Metabolic stability in human liver microsomes assessed as intrinsic clearance at 1 uM measured after 5 to 45 mins in presence of NADPH by LC-MS/MS analysis. The class given is ADME, Microsome. To be noted: time 5-45 min, read-out: CLH. Background: Microsomes from liver hold many membrane-bound enzymes, among them those of drug oxidation.
Data set [6] in a line: Half life in Cynomolgus monkey at 0.5 mg/kg, iv measured up to 48 hrs by LC-MS/MS analysis. Format: ADME, organism-based, Macaca fascicularis. To be noted: in vivo.
In a further data set the target is T2, Cytochrome P450 1A2 (Homo sapiens, UniProt P05177).
T2 sequence (P05177 whole entry): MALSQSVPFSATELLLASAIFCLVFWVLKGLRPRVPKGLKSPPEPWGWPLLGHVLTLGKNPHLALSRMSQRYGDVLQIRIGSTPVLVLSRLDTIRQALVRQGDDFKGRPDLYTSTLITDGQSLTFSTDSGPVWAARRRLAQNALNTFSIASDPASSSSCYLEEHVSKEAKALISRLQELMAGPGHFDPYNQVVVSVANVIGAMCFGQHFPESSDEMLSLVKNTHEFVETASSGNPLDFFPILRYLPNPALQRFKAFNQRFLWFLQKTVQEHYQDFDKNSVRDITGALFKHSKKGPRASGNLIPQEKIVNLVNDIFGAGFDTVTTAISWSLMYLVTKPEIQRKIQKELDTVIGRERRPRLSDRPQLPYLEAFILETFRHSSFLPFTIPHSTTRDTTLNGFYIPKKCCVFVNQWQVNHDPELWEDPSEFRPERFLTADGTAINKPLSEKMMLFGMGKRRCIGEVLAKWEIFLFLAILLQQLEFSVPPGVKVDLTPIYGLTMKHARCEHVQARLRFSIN
Put plainly: Inhibition of CYP1A2 in human liver microsomes incubated for 10 mins in presence of NADPH by LC-MS/MS analysis. The class given is ADME, Microsome.

For a further data set, the target named is Cytochrome P450 2D6 (Homo sapiens, UniProt P10635). Put plainly: Inhibition of CYP2D6 in human liver microsomes incubated for 20 mins in presence of NADPH by LC-MS/MS analysis. The class given is ADME, Microsome.
Cytochrome P450 2D6, sequence (P10635 whole entry): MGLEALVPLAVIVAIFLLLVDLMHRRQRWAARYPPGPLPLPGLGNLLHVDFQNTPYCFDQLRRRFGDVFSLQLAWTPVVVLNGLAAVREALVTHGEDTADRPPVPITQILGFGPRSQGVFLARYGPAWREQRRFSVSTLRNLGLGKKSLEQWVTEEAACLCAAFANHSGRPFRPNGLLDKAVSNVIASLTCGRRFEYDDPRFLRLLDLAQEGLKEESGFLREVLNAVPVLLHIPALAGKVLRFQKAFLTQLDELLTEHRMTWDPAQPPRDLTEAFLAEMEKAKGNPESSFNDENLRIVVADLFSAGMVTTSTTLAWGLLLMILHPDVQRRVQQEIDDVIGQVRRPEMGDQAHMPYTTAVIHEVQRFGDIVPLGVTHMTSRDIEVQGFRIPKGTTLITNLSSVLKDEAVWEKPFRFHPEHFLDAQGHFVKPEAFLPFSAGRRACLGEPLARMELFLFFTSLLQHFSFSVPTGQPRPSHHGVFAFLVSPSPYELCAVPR
Data set [7] concerns the target Voltage-gated inwardly rectifying potassium channel KCNH2 (Homo sapiens, UniProt Q12809). Put plainly: Inhibition of human ERG by whole-cell patch clamp technique. The class given is toxicity.
Data set [8] can be described thus: Cmax in Cynomolgus monkey at 5 mg/kg, po measured up to 48 hrs by LC-MS/MS analysis. The class given is ADME, organism-based, Macaca fascicularis. The note with it: in vivo.
For data set [9], the target named is T3, Glucagon-like peptide 1 receptor (Rattus norvegicus, UniProt P32301).
T3 sequence (P32301 whole entry): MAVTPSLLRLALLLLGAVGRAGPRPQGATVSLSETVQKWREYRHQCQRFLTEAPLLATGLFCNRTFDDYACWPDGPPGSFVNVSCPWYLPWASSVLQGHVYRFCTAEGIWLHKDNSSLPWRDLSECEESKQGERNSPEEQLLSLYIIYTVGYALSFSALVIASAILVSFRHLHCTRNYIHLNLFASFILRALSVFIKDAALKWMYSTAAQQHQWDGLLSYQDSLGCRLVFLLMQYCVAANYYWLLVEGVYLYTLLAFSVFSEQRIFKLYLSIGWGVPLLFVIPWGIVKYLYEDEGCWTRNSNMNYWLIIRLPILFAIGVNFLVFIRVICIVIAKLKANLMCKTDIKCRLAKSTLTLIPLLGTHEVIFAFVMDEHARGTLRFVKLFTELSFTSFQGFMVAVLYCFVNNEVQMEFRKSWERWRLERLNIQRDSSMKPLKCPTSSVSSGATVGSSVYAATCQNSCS
Put plainly: Agonist activity at rat GLP-1R expressed in HEK293 cells by cAMP accumulation assay. The class given is functional, cell-based.

Data set [10] addresses T4, Glucagon-like peptide 1 receptor (Mus musculus, UniProt O35659).
T4 sequence (O35659 whole entry): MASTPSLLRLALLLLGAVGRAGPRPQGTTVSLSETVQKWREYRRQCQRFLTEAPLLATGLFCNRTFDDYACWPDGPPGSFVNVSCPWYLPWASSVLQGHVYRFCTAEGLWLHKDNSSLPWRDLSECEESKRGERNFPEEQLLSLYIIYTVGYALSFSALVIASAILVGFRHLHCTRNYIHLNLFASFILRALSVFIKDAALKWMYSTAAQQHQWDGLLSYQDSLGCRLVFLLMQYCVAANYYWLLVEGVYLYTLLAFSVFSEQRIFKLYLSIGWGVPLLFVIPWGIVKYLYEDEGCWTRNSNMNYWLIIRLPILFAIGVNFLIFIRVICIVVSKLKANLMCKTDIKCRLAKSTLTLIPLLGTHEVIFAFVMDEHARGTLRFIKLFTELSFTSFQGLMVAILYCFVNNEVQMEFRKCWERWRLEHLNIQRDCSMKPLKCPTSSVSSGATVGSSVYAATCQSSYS
In words: Agonist activity at mouse GLP-1R expressed in HEK293 cells by cAMP accumulation assay. Format: functional, cell-based.

Another data set concerns the target Cytochrome P450 2C19 (Homo sapiens, UniProt P33261). In words: Inhibition of CYP2C19 in human liver microsomes incubated for 45 mins in presence of NADPH by LC-MS/MS analysis. Format: ADME, Microsome.
The nature of data set [11]: AUC last in male Sprague-Dawley rat at 1 mg/kg, iv measured up to 24 hrs by LC-MS/MS analysis. Format: ADME, organism-based. To be noted: in vivo.
Another data set deals with Cytochrome P450 2C9 (Homo sapiens, UniProt P11712). In words: Inhibition of CYP2C9 in human liver microsomes incubated for 10 mins in presence of NADPH by LC-MS/MS analysis. Format: ADME, Microsome.
Cytochrome P450 2C9, sequence (P11712 whole entry): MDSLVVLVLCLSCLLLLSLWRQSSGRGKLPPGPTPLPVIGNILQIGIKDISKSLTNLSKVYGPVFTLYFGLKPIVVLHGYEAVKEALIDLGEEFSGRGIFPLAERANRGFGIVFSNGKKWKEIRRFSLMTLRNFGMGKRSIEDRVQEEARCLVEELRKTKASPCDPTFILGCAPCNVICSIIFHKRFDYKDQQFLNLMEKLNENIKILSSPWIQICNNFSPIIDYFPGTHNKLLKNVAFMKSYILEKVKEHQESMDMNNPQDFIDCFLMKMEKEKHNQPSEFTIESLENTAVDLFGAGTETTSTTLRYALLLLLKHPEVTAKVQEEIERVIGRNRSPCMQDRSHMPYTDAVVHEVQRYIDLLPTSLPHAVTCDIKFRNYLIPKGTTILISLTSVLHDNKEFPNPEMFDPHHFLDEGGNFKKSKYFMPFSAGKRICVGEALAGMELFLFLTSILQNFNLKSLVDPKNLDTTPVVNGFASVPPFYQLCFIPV
Data set [12] in a line: Oral bioavailability in Sprague-Dawley rat at 10 mg/kg measured up to 24 hrs by LC-MS/MS analysis. Format: ADME, organism-based. To be noted: in vivo.
Data set [13] concerns the target LCK (tyrosine-protein kinase Lck) (Homo sapiens, UniProt P06239). In words: Inhibition of LCK (unknown origin) at 10 uM relative to control. The class given is toxicity.
Another data set has as its target Cytochrome P450 3A4 (Homo sapiens, UniProt P08684). In words: Inhibition of CYP3A4 in human liver microsomes using testosterone as substrate incubated for 5 mins in presence of NADPH by LC-MS/MS analysis. The class given is ADME, Microsome.
Data set [14] is described as follows: Tmax in Sprague-Dawley rat at 10 mg/kg, po measured up to 24 hrs by LC-MS/MS analysis. The class given is ADME, organism-based. To be noted: in vivo.
Data set [15] can be described thus: AUC last in Cynomolgus monkey at 5 mg/kg, po measured up to 48 hrs by LC-MS/MS analysis. Format: ADME, organism-based, Macaca fascicularis. To be noted: in vivo.
Data set [16] in a line: Metabolic stability in human liver microsomes assessed as half life at 1 uM measured after 5 to 45 mins in presence of NADPH by LC-MS/MS analysis. The class given is ADME, Microsome. To be noted: time 5-45 min.

T1 sequence (P43220 whole entry): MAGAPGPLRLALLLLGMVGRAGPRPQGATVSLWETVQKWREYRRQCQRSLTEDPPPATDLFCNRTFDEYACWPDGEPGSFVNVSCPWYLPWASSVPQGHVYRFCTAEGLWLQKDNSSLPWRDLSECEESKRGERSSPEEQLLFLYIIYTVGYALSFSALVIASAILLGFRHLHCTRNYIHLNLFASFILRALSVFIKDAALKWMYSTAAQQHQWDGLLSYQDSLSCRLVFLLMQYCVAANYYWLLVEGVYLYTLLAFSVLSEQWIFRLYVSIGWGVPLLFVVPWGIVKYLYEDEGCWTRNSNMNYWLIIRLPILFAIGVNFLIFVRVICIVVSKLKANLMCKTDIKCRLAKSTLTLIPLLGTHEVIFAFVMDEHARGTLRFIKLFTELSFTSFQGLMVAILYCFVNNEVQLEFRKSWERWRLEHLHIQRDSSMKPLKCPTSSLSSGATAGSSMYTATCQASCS
Cytochrome P450 3A4, sequence (P08684 whole entry): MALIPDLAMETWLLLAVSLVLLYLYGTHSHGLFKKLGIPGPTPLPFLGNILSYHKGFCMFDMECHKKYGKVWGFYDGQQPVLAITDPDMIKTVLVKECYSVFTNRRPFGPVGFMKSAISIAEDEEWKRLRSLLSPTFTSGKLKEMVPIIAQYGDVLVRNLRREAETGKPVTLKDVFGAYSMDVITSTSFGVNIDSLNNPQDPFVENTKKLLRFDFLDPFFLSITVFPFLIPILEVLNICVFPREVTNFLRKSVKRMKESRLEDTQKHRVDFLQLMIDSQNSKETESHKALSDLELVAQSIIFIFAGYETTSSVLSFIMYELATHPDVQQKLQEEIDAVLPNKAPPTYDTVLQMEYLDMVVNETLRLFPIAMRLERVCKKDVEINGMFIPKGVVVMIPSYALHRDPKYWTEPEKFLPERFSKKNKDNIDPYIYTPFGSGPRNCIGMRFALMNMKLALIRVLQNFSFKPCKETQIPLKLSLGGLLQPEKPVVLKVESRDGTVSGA
Voltage-gated inwardly rectifying potassium channel KCNH2, sequence (Q12809 whole entry): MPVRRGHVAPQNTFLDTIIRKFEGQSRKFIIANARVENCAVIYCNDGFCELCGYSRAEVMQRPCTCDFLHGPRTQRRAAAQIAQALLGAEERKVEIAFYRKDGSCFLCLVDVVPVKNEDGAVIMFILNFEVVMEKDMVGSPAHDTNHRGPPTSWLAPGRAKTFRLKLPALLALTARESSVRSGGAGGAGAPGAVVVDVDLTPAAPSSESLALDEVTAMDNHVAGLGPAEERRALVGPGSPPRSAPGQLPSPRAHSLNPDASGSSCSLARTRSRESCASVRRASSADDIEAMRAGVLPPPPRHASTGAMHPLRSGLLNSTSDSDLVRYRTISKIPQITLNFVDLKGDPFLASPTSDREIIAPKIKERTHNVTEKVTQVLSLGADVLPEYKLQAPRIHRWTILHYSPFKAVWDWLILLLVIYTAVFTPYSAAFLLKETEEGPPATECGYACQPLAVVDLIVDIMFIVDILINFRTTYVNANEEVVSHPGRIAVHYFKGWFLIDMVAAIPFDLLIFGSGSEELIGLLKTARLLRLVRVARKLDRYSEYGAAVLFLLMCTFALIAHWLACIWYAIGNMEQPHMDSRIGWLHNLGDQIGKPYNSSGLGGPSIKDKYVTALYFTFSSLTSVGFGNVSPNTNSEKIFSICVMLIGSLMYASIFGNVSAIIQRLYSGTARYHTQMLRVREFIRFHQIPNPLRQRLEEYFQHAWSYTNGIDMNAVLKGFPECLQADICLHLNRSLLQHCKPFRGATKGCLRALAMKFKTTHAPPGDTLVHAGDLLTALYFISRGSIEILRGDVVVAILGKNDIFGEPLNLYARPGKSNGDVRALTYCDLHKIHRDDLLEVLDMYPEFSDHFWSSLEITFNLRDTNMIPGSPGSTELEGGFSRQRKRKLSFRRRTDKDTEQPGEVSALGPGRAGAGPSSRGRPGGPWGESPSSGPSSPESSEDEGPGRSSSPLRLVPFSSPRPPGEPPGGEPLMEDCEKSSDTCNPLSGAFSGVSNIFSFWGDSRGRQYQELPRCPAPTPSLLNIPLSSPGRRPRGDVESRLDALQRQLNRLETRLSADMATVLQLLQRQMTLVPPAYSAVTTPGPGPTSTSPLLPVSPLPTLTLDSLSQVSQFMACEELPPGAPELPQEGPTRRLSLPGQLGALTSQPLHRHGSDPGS
LCK (tyrosine-protein kinase Lck), sequence (P06239 whole entry): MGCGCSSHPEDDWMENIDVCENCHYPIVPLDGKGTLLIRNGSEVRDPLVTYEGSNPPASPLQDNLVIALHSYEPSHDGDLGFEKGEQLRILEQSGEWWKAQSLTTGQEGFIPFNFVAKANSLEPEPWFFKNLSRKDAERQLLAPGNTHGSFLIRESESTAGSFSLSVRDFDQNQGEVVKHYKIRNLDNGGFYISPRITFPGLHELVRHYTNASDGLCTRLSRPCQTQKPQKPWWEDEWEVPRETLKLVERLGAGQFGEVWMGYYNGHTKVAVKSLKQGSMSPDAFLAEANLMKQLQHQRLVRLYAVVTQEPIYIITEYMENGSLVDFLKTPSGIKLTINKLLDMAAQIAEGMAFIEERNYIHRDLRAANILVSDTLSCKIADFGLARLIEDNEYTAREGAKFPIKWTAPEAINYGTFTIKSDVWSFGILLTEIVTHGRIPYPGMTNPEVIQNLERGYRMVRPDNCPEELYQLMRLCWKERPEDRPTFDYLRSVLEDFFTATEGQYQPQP
Cytochrome P450 2C19, sequence (P33261 whole entry): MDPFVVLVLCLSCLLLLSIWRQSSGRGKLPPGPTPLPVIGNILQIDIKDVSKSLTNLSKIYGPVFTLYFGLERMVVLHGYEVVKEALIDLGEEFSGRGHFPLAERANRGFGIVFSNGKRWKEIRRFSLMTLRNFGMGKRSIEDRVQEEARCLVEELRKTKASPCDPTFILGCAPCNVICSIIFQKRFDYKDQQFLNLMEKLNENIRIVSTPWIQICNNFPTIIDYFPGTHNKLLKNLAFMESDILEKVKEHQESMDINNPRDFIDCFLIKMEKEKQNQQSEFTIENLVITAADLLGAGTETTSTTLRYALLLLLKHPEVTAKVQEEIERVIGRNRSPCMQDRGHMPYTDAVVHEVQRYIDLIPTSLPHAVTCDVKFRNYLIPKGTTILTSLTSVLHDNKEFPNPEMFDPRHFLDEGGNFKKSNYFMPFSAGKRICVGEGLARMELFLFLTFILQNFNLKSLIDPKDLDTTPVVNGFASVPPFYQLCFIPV

On to `O=C(O)c1ccc2nc(Cc3ccc(-c4ccc(F)c(OCc5ccc(Cl)c6ccoc56)n4)cc3F)n(C[C@@H]3CCO3)c2c1`, for which the EC50 (as a rule, the concentration at which the effect is half-maximal) in data set [1] was 0.029 nM; in data set [3], 0.118 µM; in [4] it was 0.012 nM; in data set [9], over 30 µM; in data set [10], over 30 µM. In addition, the inhibition (as a rule, how much of the control response was suppressed) at 10 µM was 62.4% on 5-HT1B receptor and 87.5% in data set [13]. The values for the half-life in data set [2] and in data set [6] were 10.4 h and 12.7 h, respectively. In addition, in data set [5], the CLint scaled at 1 µM turned out to be 13.3 mL/min/kg. Besides, the IC50 (on Cytochrome P450 1A2; on Cytochrome P450 2D6; in data set [7]; on Cytochrome P450 2C19; at Cytochrome P450 2C9; on Cytochrome P450 3A4) was over 30 µM throughout. The Cmax (in general, the peak of the concentration-time curve) in data set [8] came to 327 ng/mL. The AUC(0-t) (commonly the area under the concentration-time curve up to a stated or last time point) at 24 h in data set [11] is 1480 ng·h/mL. Further, the bioavailability (as a rule, dose-corrected exposure relative to a reference, in per cent) in data set [12] was 20.1%. The Tmax (as a rule, the time at which the peak concentration occurs) in [14] is 3.5 h. The AUC(0-t) at 48 h in data set [15] stood at 2440 ng·h/mL. For the same compound, the half-life (in general, the time in which the quantity being followed falls by half) at 1 µM in [16] came to 2.18 h.
